{
  "source": "patent US20140148498A1",
  "about": "“METHODS AND COMPOSITIONS FOR THE TREATMENT OF MARFAN SYNDROME AND ASSOCIATED DISORDERS” (THE JOHNS HOPKINS UNIVERSITY, priority 2011, published 2014)",
  "key": {"ERK1/2": {"system": "ERK1/2", "test": "Western blot of proximal ascending aorta: ERK1/2 activation (Examples 6-8)", "assay_type": "in vivo, mice", "settings": "Fbn1^C1039G/+ mice, compared with placebo-treated littermates, FIG. 16B", "from_the_text": "All mice were cared for under strict compliance with the Animal Care and Use Committee of the Johns Hopkins University School of Medicine. The Smad4 haploinsufficient mice were a generous gift from Dr. Chuxia Deng (NIH/NIDDK, Bethesda). The Fbn1^C1039G/+ line was maintained on a C57BL/6 background, allowing for valid comparisons. In order to further accommodate the potential for temporal- or background-specific variation in genetic or pharmacological manipulation experiments, all comparisons were made between contemporary littermates. Mice were checked daily for death and all mice found dead were immediately necropsied to assess for evidence of aortic dissection. Mice were killed with an inhalation overdose of halothane (Sigma-Aldrich, St. Louis). Mice underwent immediate laparotomy, descending abdominal aortic transection, and PBS (pH 7.4) infusion through the left ventricle to flush out the blood. For Western blot analysis, the proximal ascending aorta (root to right brachiocephalic trunk) was removed, flash frozen in liquid nitrogen and stored at −80° C. Following PBS infusion, mice analyzed for aortic histology had latex injected under low pressure into the left ventricular apex until it was visible in the descending abdominal aorta. The mice were then fixed for 24 hours in 10% buffered formalin, after which the heart and aorta were removed and stored in 70% ethanol.\nMouse monoclonal TGFβNAb (1d11; R&D Systems, Minneapolis) was reconstituted in PBS and administered via intraperitoneal injection 3 times a week at a dose of 5 mg/kg. Treatment was initiated at 1 month of age and continued for 2 months. IgG (Zymed Laboratories Inc, San Francisco) was reconstituted in PBS, and administered at a dose of 10 mg/kg as a control. […]\nProtein was extracted using the reagents and protocol from a Total Protein Extraction Kit, in conjunction with a Protein Phosphatase Inhibitor Cocktail (Millipore, MA). […] Equal protein loading of samples was determined by a protein assay (BioRad, CA) and confirmed by probing with antibodies against β-Actin or GAPDH (Sigma, Mo.). […]"}, "Fbn1^C1039G/+ mice": {"system": "Fbn1^C1039G/+ mice", "test": "Aortic wall architecture score (VVG staining)", "assay_type": "in vivo", "settings": "FIG. 9", "method": "Latex-infused ascending aortas were transected just above the level of the aortic valve, and 2-3 mm transverse sections were mounted in 4% agar prior to paraffin fixation. Five micrometer aortic sections underwent Verhoeff-van Giesen (VVG) staining and were imaged at 40× magnification, using a Nikon Eclipse E400 microscope. Wall thickness of the aortic media was measured by a single blinded observer at 16 different locations around the most proximal ascending aortic ring and averaged. Wall architecture of 4 representative sections for each mouse was assessed by the same 3 blinded observers and graded on an arbitrary scale of 1 (indicating no breaks in the elastic fiber) to 5 (indicating diffuse fragmentation), and the results were averaged. Elastic fiber content was quantified in four separate representative images of each section of the most proximal ascending aorta by a single blinded observer, using NIS Elements Advanced Research (Nikon, Japan). The aortic media and the elastic fibers were individually outlined and their areas calculated. The respective areas were averaged from all the images of a given aortic section and the ratio of elastic fiber content to total aortic media was determined. Individual lobes of the lungs were mounted in 4% agar and fixed in paraffin. Five micrometer lung sections underwent hematoxylin and eosin staining and were imaged at 10× magnification, using a Nikon Eclipse E400 microscope. Five fields were analyzed for each lobe of each lung by a single blinded observer, and a mean linear intercept was calculated using a previously described method (J. P. Habashi et al., Science 312, 117 (2006); and E. R. Neptune et al., Nat. Genet. 33, 407 (2003))."}},
  "note": "“Also recorded” adds a separate entry of the source.",
  "data": [
    {"compound": "CCCCc1nc(Cl)c(CO)n1Cc1ccc(-c2ccccc2-c2nn[nH]n2)cc1", "note": "[losartan]", "values": [
      {"measurement": "ERK1/2 activation", "setting": "ERK1/2", "value": "significant reduction in ERK1/2 activation"},
      {"measurement": "Aortic wall architecture score", "setting": "Fbn1^C1039G/+ mice", "value": "significantly more beneficial than both placebo and enalapril treatment; also recorded: significant improvement"}
    ]}
  ]
}
